Results: patent US11439148B2, “Pyrimidine derivatives” (SYNGENTA PARTICIPATIONS AG, priority 2017, dated 2022)

system: Polygonum convolvulus (POLCO); test: Adjuvant efficacy with mesotrione, glasshouse spray test; type: in vivo; settings: mesotrione SC, mean over 30 and 60 g/ha and 3 replicates; adjuvant 0.2% v/v (none in No Adjuvant rows); % leaf area killed, 21 days after application; Tests 1-4 separate runs
Protocol: (§1) The efficacy of adjuvants 1-12 as an adjuvant for the herbicide mesotrione was tested in a glasshouse against four weed species sown into standard soil in pots and cultivated under controlled conditions in a glasshouse (at 24/18° C. day/night; 16 hours light; 65% humidity). Mesotrione was added to the spray tank as a standard SC (suspension concentrate) formulation.
(§2) The spray tests were also carried out using mesotrione in conjunction with adjuvants 1-12. The adjuvants were added to the spray solution at a rate of 0.2% v/v unless otherwise stated. All spray solutions also contained 10% w/w of iso-Propanol. The weed species and their BBCH growth stage at spraying were Brachiaria platyphylla (BRAPP; growth stage 13-14) or Brachiaria plantaginea (BRAPL; growth stage 13-14), Commelina benghalensis (COMBE; growth stage 13), Digitaria sanguinalis (DIGSA; growth stage 14), and Polygonum convolvulus (POLCO; growth stage 13-14). Each spray test was replicated three times.
(§3) The test plants were then grown in a glasshouse under controlled conditions (at 24/18° C. day/night; 16 hours light; 65% humidity) and watered twice a day. The efficacy of the herbicide was assessed visually and expressed as a percentage of the leaf area killed. Samples were assessed at a time period of 21 days following application. The results shown in Table 3 below are mean averages over the two rates of mesotrione and the three replicates.

Compound	Mean % Herbicidal Activity POLCO
CCCCCCOc1cc(OCCOCCOCCOCCOCCOCCOCCOCCOCCOCCOCCOCCOCCOCCOCCOCCOCCOCCOCCOCCOC)ncn1 [Adjuvant 3]	92%
CCCCCCCCCOc1cc(OCCOCCOCCOCCOCCOCCOCCOC)ncn1 [Adjuvant 4]	93%
CCCCCCCCCOc1cc(OCCOCCOCCOCCOCCOCCOCCOCCOCCOCCOC)ncn1 [Adjuvant 5]	94%
CCCCCCCCC=CCCCCCCCCOc1cc(OCCOCCOC)ncn1 [Adjuvant 9]	92%
CCCCCCCCC=CCCCCCCCCOc1cc(OCCOCCOCCOCCOCCOCCOCCOCCOCCOCCOCCOCCOCCOCCOCCOCCOCCOCCOCCOCCOC)ncn1 [Adjuvant 11]	92%
CCCCCCCCCCCCOc1cc(OCC(C)OCC(C)OCC(C)OC)ncn1 (stereo not drawn) [Adjuvant 12]	98%

system: Brachiaria platyphylla (BRAPP); test: as above; type: in vivo; settings: mesotrione SC, mean over 30 and 60 g/ha and 3 replicates; adjuvant 0.2% v/v (none in No Adjuvant rows); % leaf area killed, 21 days after application; Tests 1-3 separate runs
Protocol: as §1, §2, §3

Compound	Mean % Herbicidal Activity BRAPP
CCCCCCOc1cc(OCCOCCOCCOCCOCCOCCOCCOCCOCCOCCOCCOCCOCCOCCOCCOCCOCCOCCOCCOCCOC)ncn1 [Adjuvant 3]	38%
CCCCCCCCCOc1cc(OCCOCCOCCOCCOCCOCCOCCOC)ncn1 [Adjuvant 4]	43%
CCCCCCCCCOc1cc(OCCOCCOCCOCCOCCOCCOCCOCCOCCOCCOC)ncn1 [Adjuvant 5]	48%
CCCCCCCCC=CCCCCCCCCOc1cc(OCCOCCOC)ncn1 [Adjuvant 9]	69%
CCCCCCCCC=CCCCCCCCCOc1cc(OCCOCCOCCOCCOCCOCCOCCOCCOCCOCCOCCOCCOCCOCCOCCOCCOCCOCCOCCOCCOC)ncn1 [Adjuvant 11]	58%
CCCCCCCCCCCCOc1cc(OCC(C)OCC(C)OCC(C)OC)ncn1 (stereo not drawn) [Adjuvant 12]	69%

system: Digitaria sanguinalis (DIGSA); test: as above; type: in vivo; settings: mesotrione SC, mean over 30 and 60 g/ha and 3 replicates; adjuvant 0.2% v/v (none in No Adjuvant rows); % leaf area killed, 21 days after application; Tests 1-4 separate runs
Protocol: as §1, §2, §3

Compound	Mean % Herbicidal Activity DIGSA
CCCCCCOc1cc(OCCOCCOCCOCCOCCOCCOCCOCCOCCOCCOCCOCCOCCOCCOCCOCCOCCOCCOCCOCCOC)ncn1 [Adjuvant 3]	83%
CCCCCCCCCOc1cc(OCCOCCOCCOCCOCCOCCOCCOC)ncn1 [Adjuvant 4]	83%
CCCCCCCCCOc1cc(OCCOCCOCCOCCOCCOCCOCCOCCOCCOCCOC)ncn1 [Adjuvant 5]	72%
CCCCCCCCC=CCCCCCCCCOc1cc(OCCOCCOC)ncn1 [Adjuvant 9]	82%
CCCCCCCCC=CCCCCCCCCOc1cc(OCCOCCOCCOCCOCCOCCOCCOCCOCCOCCOCCOCCOCCOCCOCCOCCOCCOCCOCCOCCOC)ncn1 [Adjuvant 11]	83%
CCCCCCCCCCCCOc1cc(OCC(C)OCC(C)OCC(C)OC)ncn1 (stereo not drawn) [Adjuvant 12]	84%

system: weed species BRAPP, COMBE, DIGSA, POLCO; test: Adjuvant efficacy with mesotrione, glasshouse spray test, average over all species (BRAPP set); type: in vivo; settings: mesotrione SC, mean over 30 and 60 g/ha; adjuvant 0.2% v/v (none in No Adjuvant rows); 21 days; Tests 1-3, species set with BRAPP (COMBE only in Test 2)
Protocol: as §1, §2, §3

Compound	Mean % Herbicidal Activity Average over all Species
CCCCCCOc1cc(OCCOCCOCCOCCOCCOCCOCCOCCOCCOCCOCCOCCOCCOCCOCCOCCOCCOCCOCCOCCOC)ncn1 [Adjuvant 3]	71%
CCCCCCCCCOc1cc(OCCOCCOCCOCCOCCOCCOCCOC)ncn1 [Adjuvant 4]	73%
CCCCCCCCCOc1cc(OCCOCCOCCOCCOCCOCCOCCOCCOCCOCCOC)ncn1 [Adjuvant 5]	71%
CCCCCCCCC=CCCCCCCCCOc1cc(OCCOCCOC)ncn1 [Adjuvant 9]	81%
CCCCCCCCC=CCCCCCCCCOc1cc(OCCOCCOCCOCCOCCOCCOCCOCCOCCOCCOCCOCCOCCOCCOCCOCCOCCOCCOCCOCCOC)ncn1 [Adjuvant 11]	78%
CCCCCCCCCCCCOc1cc(OCC(C)OCC(C)OCC(C)OC)ncn1 (stereo not drawn) [Adjuvant 12]	84%

system: four weed species (ALOMY, AVEFA, LOLPE, SETVI); test: Adjuvant efficacy with pinoxaden, glasshouse spray test, average over all species; type: in vivo; settings: pinoxaden EC, mean over 7.5 and 15 g/ha, adjuvant 0.2% v/v (none in No Adjuvant rows), 21 days, average of ALOMY
Protocol: as §1, with “adjuvants” for “an adjuvant”, “pinoxaden were” for “mesotrione was”, “species,” for “species”, “20/16°” for “24/18°”, “Pinoxaden” for “Mesotrione”, “EC (emulsifiable” for “SC (suspension”
The spray tests were also carried out using pinoxaden in conjunction with adjuvants 1-12. The adjuvants were added to the spray solution at a rate of 0.2% v/v unless otherwise stated. All spray solutions also contained 10% w/w of iso-Propanol. The weed species and their BBCH growth stage at spraying were Avena fatua (AVEFA; growth stage 12), Lolium perenne (LOLPE; growth stage 13), Alopecurus myosuroides (ALOMY; growth stage 13), and Setaria viridis (SETVI; growth stage 13-14). Each spray test was replicated three times. The test plants were then grown in a glasshouse under controlled conditions (at 20/16° C. day/night; 16 hours light; 65% humidity) and watered twice a day. The efficacy of the herbicide was assessed visually and expressed as a percentage of the leaf area killed. Samples were assessed at a time period of 21 days following application. The results shown in Table 4 below are mean averages over the two rates of pinoxaden, and the three replicates.

Compound	Mean % Herbicidal Activity Average over all Species
CCCCCCOc1cc(OCCOCCOCCOCCOCCOCCOCCOCCOCCOCCOCCOCCOCCOCCOCCOCCOCCOCCOCCOCCOC)ncn1 [Adjuvant 3]	44%
CCCCCCCCCOc1cc(OCCOCCOCCOCCOCCOCCOCCOC)ncn1 [Adjuvant 4]	52%
CCCCCCCCCOc1cc(OCCOCCOCCOCCOCCOCCOCCOCCOCCOCCOC)ncn1 [Adjuvant 5]	41%
CCCCCCCCC=CCCCCCCCCOc1cc(OCCOCCOC)ncn1 [Adjuvant 9]	58%
CCCCCCCCC=CCCCCCCCCOc1cc(OCCOCCOCCOCCOCCOCCOCCOCCOCCOCCOCCOCCOCCOCCOCCOCCOCCOCCOCCOCCOC)ncn1 [Adjuvant 11]	38%
CCCCCCCCCCCCOc1cc(OCC(C)OCC(C)OCC(C)OC)ncn1 (stereo not drawn) [Adjuvant 12]	70%
